Measurements taken from patent publication US20030119728A1, “Stable, nasally, orally or sublingually applicable pharmaceutical preparation” (priority 2000, published 2003).

Experiment: Preliminary study of desmopressin preparations with various pH values, 6 weeks at 50° C. in glass flasks
Assay type: physicochemical
Details: pH 1.0-7.0 tested, desmopressin content and sum of G1-G4
Method: Desmopressin preparations with various pH values (1.0, 2.0, 3.0, 4.0, 5.0, 6.0, and 7.0) were investigated for these preliminary studies. These solutions were stored in glass flasks for 6 weeks at 50° C. and then analysed in the usual way with the use of analytical columns. After 6 weeks the pH values of the seven solutions were unchanged.

pH region in which desmopressin is most stable: ~5.0
Structure (SMILES): NC(=O)CC[C@@H]1NC(=O)[C@H](Cc2ccccc2)NC(=O)[C@H](Cc2ccc(O)cc2)NC(=O)CCSSC[C@@H](C(=O)N2CCC[C@H]2C(=O)N[C@H](CCCN=C(N)N)C(=O)NCC(N)=O)NC(=O)[C@H](CC(N)=O)NC1=O [desmopressin, 1-deamino-8-D-arginine-vasopressin]
